According to patent US20240335404A1, “SUBSTITUTED ESTERS CONTAINING POLYOLS AND SACCHARIDES FOR TREATING HEPATOTOXICITY AND FATTY LIVER DISEASES” (SINEW PHARMA INC., priority 2015, published 2024):

System: fatty liver
Test: High fat diet-induced fatty liver in B6 mice
Assay type: in vivo
Conditions: HFD mice; for GSH / Gpx / Grd / SOD: liver; for ALT / AST / TC in liver / TG in liver: administration period of 4 weeks; for liver TC / liver TG: 4 or 8 weeks; for ALT and AST values: compounds administered separately; for liver tissue sections, H&E: treated for 4 weeks, FIG. 5
Method: More than four mice were used in each group of the pre-test, while more than twelve mice were used in each group of the confirmatory test. […] The animal test was carried out according to the guideline for animal experiment of National Health Research Institutes. […] The weight of mice was recorded once a week. The tested animals were grouped randomly into Blank, High Fat Diet control (HFD), Positive Control (PS), and Test group. The animals of Blank were fed with normal feed. The animals of HFD were fed with high fat feed. […] The animals of Test group were fed with high fat feed, and additionally fed with test compounds by a tube. The animals of Blank were fed casually with normal feed for 12 weeks, while the animals of HFD, PS, and Test group were fed casually with high fat feed for 12 weeks. After 8 weeks of feeding, the animals of Blank and HFD were fed with deionized water by a tube once a day; the animals of PS were fed with silymarin by a tube once a day; and the animals of Test Group were fed with test compounds by a tube once a day for a duration of 4 or 8 weeks. Before testing and in the eighth, twelfth, and sixteenth week after testing, blood was collected from the cheek or the heart. At the end of testing, all mice were weighted and then sacrificed, and blood was collected from the cheek or the heart simultaneously. The blood specimens of mice rested at room temperature for one hour to clot, and then the serum was separated by centrifugation in a refrigeration centrifuge at 15,700×g at 4° C. for 5 minutes. Afterwards, biochemical indices of liver function, including aspartate transaminase (AST), alanine aminotransferase (ALT), triglyceride (TG), total cholesterol (TCHO/TC), low-density lipoprotein cholesterol (LDL-C), and high-density lipoprotein cholesterol (HDL-C), were detected by the automatic blood biochemistry analyzer. In addition, abdominal fat and liver specimens were taken from the abdomens of sacrificed mice and weighted to compare the weight of fat and liver and obtain the ratio of liver weight to body weight. […] The cut sections proceeded with H&E staining for histopathological observation. Moreover, the rest of the liver was frozen for preservation and detection of the contents of triglyceride and total cholesterol in the liver. Furthermore, the liver function of animals of each group were analyzed by Galactose Single Point Method, which was recognized and recommended for quantification of remaining liver function in clinical use by U.S. FDA and Ministry of Health and Welfare, Taiwan. […] One hour after the administration, about 0.5 ml of whole blood was taken by using a filter paper to evaluate liver function of mice. The higher the value of GSP was, the worse the remaining liver function would be. (FDA: “Guidance for Industry: Pharmacokinetics in Patients with Impaired. Hepatic Function-Study Design, Data Analysis and Impact on Dosing and. Labeling. 2003. At the end of the test, all mice were sacrificed. […] Afterwards, xylene was replaced with hot paraffin solution. At last, the tissue was embedded with paraffin solution. The finished paraffin specimen was cut into […] paraffin sections by the microtome. The sections were pasted on clean slides, dried at 37° C., and then stained by H&E staining. In order to observe the changes of lesion, fat accumulation, necrosis, or fibrosis in liver cells when there was an ongoing liver damage, liver tissues were H&E stained to evaluate the degree of liver fat accumulation. All the histopathological sections were cut from the same position on the largest right lobe of liver for eliminating bias in subjective observation, and then subject to pathological staining. As for the assessment of semi-quantitative analysis in pathology, it had to be confirmed by a physician or a veterinary pathologist who conducted a double-blind analysis to score (NAS score) and compare all the sections without knowing the test design. […]

[1] = 2.5 mg/kg, test period of 4 weeks
[2] = 1.5 mg/kg, test period of 4 weeks

Structure (SMILES) | GSH [1] [U/L] | Gpx [1] [U/L] | Grd [1] [U/L] | SOD [1] [U/L] | Abdominal fat weight (2.5 mg/kg) [g] | Increase of body weight (2.5 mg/kg) [g] | Liver weight (2.5 mg/kg) [g] | ALT (2.5 mg/kg) [U/L] | AST (2.5 mg/kg) [U/L] | TC in liver (2.5 mg/kg) [mg/g liver] | TG in liver (2.5 mg/kg) [mg/g liver] | liver TC | liver TG | liver antioxidant activity (4 weeks) | ALT and AST values | liver tissue sections, H&E | Abdominal fat weight (1.5 mg/kg) [g] | Increase of body weight (1.5 mg/kg) [g] | Liver weight (1.5 mg/kg) [g] | ALT (1.5 mg/kg) [U/L] | other results
O=C1C[C@@H](c2ccc(O)c(O)c2)Oc2cc(O)cc(O)c21 [Eriodictyol] | 1302.0 ± 241.1 | 3083.3 ± 378.9 | 86.9 ± 15.7 | 385.9 ± 34.0 | 2.7 ± 0.6 | 8.3 ± 6.7 | 1.3 ± 0.1 | 33.7 ± 18.5 | 100.9 ± 42.0 | 3.8 ± 1.1 | 43.1 ± 13.1 | reduce TC in liver significantly | reduce TG in liver significantly | improve antioxidant activity significantly | reduce ALT and AST values significantly | large vesicular fat droplets within liver cells in liver tissue section were significantly reduced |  |  |  |  | NAS [1]: 1.5 ± 0.8 mg/g liver; ALT (5.0 mg/kg): 41.4 ± 6.3 U/L; AST (5.0 mg/kg): 161.4 ± 42.3 U/L; TC in liver (5.0 mg/kg): 3.0 ± 0.9 mg/g liver; TG in liver (5.0 mg/kg): 54.2 ± 15.0 mg/g liver; reduction in liver TG content (4-week treatment, p<0.005): about 67%; liver damage, NAS (4 weeks): reduce liver damage significantly
COc1ccc([C@@H]2CC(=O)c3c(O)cc(O)cc3O2)cc1O [Hesperitin] | 1742.6 ± 241.5 | 3133.3 ± 376.9 | 102.5 ± 28.3 | 408.3 ± 66.7 | 3.0 ± 0.5 | 14.5 ± 8.3 | 1.5 ± 0.1 | 36.8 ± 22.1 | 72.4 ± 11.2 | 3.7 ± 0.7 | 67.8 ± 16.6 | reduce TC in liver significantly | reduce TG in liver significantly | improve antioxidant activity significantly | reduce ALT and AST values significantly |  |  |  |  |  | 
CC1CCC(C(C)C)C(O)C1 (centres unmarked) [Menthol] |  |  |  |  |  |  |  |  |  |  |  | reduce TC in liver significantly | reduce TG in liver significantly |  | reduce ALT and AST values significantly | large vesicular fat droplets within liver cells in liver tissue section were significantly reduced | 2.3 ± 0.6 | 19.6 ± 5.0 | 1.6 ± 0.2 | 41.5 ± 13.7 | weight of abdominal fat: reduce the weight of abdominal fat in animals significantly; GSH [2]: 1432.7 ± 104.0 U/L; Gpx [2]: 2921.7 ± 640.2 U/L; Grd [2]: 95.2 ± 16.2 U/L; SOD [2]: 427.9 ± 41.9 U/L; AST (1.5 mg/kg): 129.9 ± 37.1 U/L; TC in liver (1.5 mg/kg): 4.4 ± 3.5 mg/g liver; TG in liver (1.5 mg/kg): 87.3 ± 72.3 mg/g liver
O=C(CCc1ccc(O)cc1)c1c(O)cc(O)cc1O[C@@H]1O[C@H](CO)[C@@H](O)[C@H](O)[C@H]1O [Phloridzin] | 1387.7 ± 168.2 | 3234.0 ± 505.1 | 82.2 ± 33.6 | 411.5 ± 87.5 | 2.3 ± 0.6 | 13.7 ± 10.7 | 1.3 ± 0.1 | 35.7 ± 9.1 | 161.9 ± 96.2 | 2.9 ± 0.5 | 48.9 ± 14.1 |  |  |  |  |  |  |  |  |  | 
O=c1c(-c2ccc(O)cc2)coc2c([C@@H]3O[C@H](CO)[C@@H](O)[C@H](O)[C@H]3O)c(O)ccc12 [Puerarin] | 1498.1 ± 150.0 | 3581.7 ± 1056.7 | 99.0 ± 17.2 | 434.5 ± 59.8 | 2.8 ± 0.3 | 21.7 ± 3.1 | 1.4 ± 0.2 | 34.4 ± 14.7 | 66.9 ± 8.5 | 6.7 ± 2.7 | 89.4 ± 49.1 |  | reduce TG in liver significantly | improve antioxidant activity significantly | reduce ALT and AST values significantly |  |  |  |  |  | 
O=C1NS(=O)(=O)c2ccccc21 [Saccharin] |  |  |  |  |  |  |  |  |  |  |  | reduce TC in liver significantly |  |  | reduce ALT and AST values significantly |  | 2.3 ± 0.5 | 27.7 ± 12.7 | 1.5 ± 0.1 | 50.7 ± 29.7 | AST (1.5 mg/kg): 170.4 ± 28.6 U/L; TC in liver (1.5 mg/kg): 2.8 ± 1.5 mg/g liver; TG in liver (1.5 mg/kg): 84.0 ± 41.4 mg/g liver; reduction in liver TC content (4-week treatment, p<0.005): about 56%
